Experimental data from article PMC6747051, “Screening of Antiviral Components of Ma Huang Tang and Investigation on the Ephedra Alkaloids Efficacy on Influenza Virus Type A” (Frontiers in Pharmacology, 2019).
Values after ≈ are worked out from the molar mass of the structure shown. Values joined by “and” are separate entries in the source; they are usually repeats but may differ in a detail not shown here. Equal entries are not always repeated. “Also recorded” adds a separate entry of the source. Where two headings read alike, the source gives them in different places.

Legend:
[1] = test system: MDCK cells; conditions: dog
[2] = test system: influenza A virus; conditions: for cell viability rate: dog
[3] = test system: influenza A virus; assay: microbe, parasite or virus in culture; conditions: MDCK, 48 h, read-out: Cell survival rate
[4] = test system: influenza A virus; assay: Antiviral activity assay in vitro with four ways of drug delivery (MTT, MDCK cells); assay type: cell-based, influenza virus A/PR8/34 (H1N1); conditions: for EC50: Influenza A virus, MDCK
[5] = test system: influenza A virus; assay: Viral load assay using real-time RT-PCR (M1 gene) and CPE in infected MDCK cells; assay type: cell-based, influenza virus A/PR8/34 (H1N1); conditions: for virus load vs oseltamivir group: LMEP 31.25 μg/ml, LEP […], DPEP […]
[6] = test system: IL-6, IFN-β and TNF-α levels; assay type: cell-based, canine
[7] = test system: TLRs signaling pathway mRNA; assay type: cell-based, canine
[8] = test system: influenza A virus (A PR/8/34); assay: Lung index of influenza A virus-infected mice; assay type: in vivo, ICR mice
Procedure: (§1) A total of 108 ICR mice were randomly divided into the control uninfected group, the control infected group, oseltamivir group, LEP-treated groups and DPEP-treated groups; 12 mice were designed in each group. Except for the mice in the control uninfected group, others were anaesthetized with ethyl ether and intranasally infected with 10LD50 influenza A virus (A PR/8/34) in a volume of 50 μl PBS to induce viral pneumonia. […] Meanwhile, the control uninfected group and the control infected group were only given saline with the same volume. […] The adult daily dose was converted into the high dose of mice, which was about 40 mg/kg. Based on the high dose of the drug, the medium and low doses were set.
(§2) In the 3rd and 7th days after infection, to monitor the histological changes in influenza A virus-infected animals, six mice were sacrificed randomly in each group, and lung, spleen and thymus tissues were obtained and weighed after being washed with saline solution. Lung index and the inhibition ratio of the lung index were calculated as our previous report, while spleen and thymus indexes were calculated based on the following formulas ([Ling et al., 2017]).

[9] = test system: influenza A virus (A PR/8/34); assay: Spleen and thymus indexes of infected mice; assay type: in vivo, ICR mice
Procedure: as §1, §2
Spleen index = (spleen weight/body weight)×100%;
Thymus index = (thymus weight/body weight)×100%;

[10] = test system: IL-1β, IL-6 and IL-10 in serum; assay type: in vivo, ICR mice; conditions: 3rd and 7th day after infection
Procedure: as §1
In days 3 and 7 post-infection, blood samples of six mice from each group were collected from retroorbital sinus under mild ethyl ether anesthesia before they were sacrificed, then under 4 °C they were centrifuged at 3000 rpm for 20 min to obtain serum. The levels of IL-1β, IL-6 and IL-10 in murine serum were determined by ELISA kits.

[11] = test system: TLR4, TLR7, MyD88 and NF-κB p65 protein expression; design: species or system ICR mice; conditions: mouse, in vivo
[12] = 24 and 48 h after administration

N#C[C@H](O[C@@H]1O[C@H](CO[C@@H]2O[C@H](CO)[C@@H](O)[C@H](O)[C@H]2O)[C@@H](O)[C@H](O)[C@H]1O)c1ccccc1 [AMY, amygdalin]
TC0 [1]: 31.25 µg/mL | TC50 [1]: 563.64 µg/mL (≈ 1230 µM) | effect on the cell viability after virus infection (in words) [2]: little antiviral effect | viability at 0.98 µg/mL [3]: 26.2% | viability at 1.95 µg/mL [3]: 27% | viability at 3.91 µg/mL [3]: 29% | viability at 7.81 µg/mL [3]: 27.9% | viability at 31.25 µg/mL [3]: 28.9% | viability at […] [3]: 28.2%

OC/C=C/c1ccccc1 [CAO, cinnamic alcohol]
TC0 [1]: 125.00 µg/mL | TC50 [1]: 390.84 µg/mL (≈ 2910 µM) | effect on the cell viability after virus infection (in words) [2]: little antiviral effect | viability at 3.91 µg/mL [3]: 25% | viability at 7.81 µg/mL [3]: 25.9% | viability at 31.25 µg/mL [3]: 26.4% | viability at 125 µg/mL [3]: 32.6% | viability at […] [3]: 26.7% and 29.9%

O=C(O)/C=C/c1ccccc1 [CMA, cinnamic acid]
effect on the cell viability after virus infection (in words) [2]: little antiviral effect | viability at 1.95 µg/mL [3]: 27.7% | viability at 3.91 µg/mL [3]: 27.9% | viability at 7.81 µg/mL [3]: 30.9% | viability at 31.25 µg/mL [3]: 33.5% | viability at […] [3]: 34.8%

CC1(C)[C@@H](O[C@H]2O[C@H](C(=O)O)[C@@H](O)[C@H](O)[C@H]2O[C@@H]2O[C@H](C(=O)O)[C@@H](O)[C@H](O)[C@H]2O)CC[C@]2(C)[C@H]3C(=O)C=C4[C@@H]5C[C@@](C)(C(=O)O)CC[C@]5(C)CC[C@@]4(C)[C@]3(C)CC[C@@H]12 [GA, glycyrrhizic acid]
TC0 ([1]; 48 h): 125.00 µg/mL | TC50 ([1]; 48 h): 663.74 µg/mL (≈ 807 µM) | effect on the cell viability after virus infection (in words) [2]: slightly increase the cell viability rate, but not obviously | cell viability rate [2]: about 47% | viability at 3.91 µg/mL [3]: 31.1% | viability at 7.81 µg/mL [3]: 32.8% | viability at 31.25 µg/mL [3]: 43% | viability at 125 µg/mL [3]: 47.2% | viability at […] [3]: 34.4% and 46%

O=C1C[C@@H](c2ccc(O[C@@H]3O[C@H](CO)[C@@H](O)[C@H](O)[C@H]3O)cc2)Oc2cc(O)ccc21 [LIQ, liquiritin]
TC0 ([1]; 48 h): 250.00 µg/mL | TC50 ([1]; 48 h): 680.77 µg/mL (≈ 1630 µM) | effect on the cell viability after virus infection (in words) [2]: little antiviral effect | viability at 7.81 µg/mL [3]: 26.6% | viability at 31.25 µg/mL [3]: 28.4% | viability at 125 µg/mL [3]: 32.2% | viability at 250 µg/mL [3]: 33.7% | viability at […] [3]: 26.9% and 28%

C[C@@H]([C@H](O)c1ccccc1)N(C)C [LMEP, L-methylephedrin]
antiviral effective rate (ER) ([4]; 31.25 μg/ml (highest concentration), post-treatment host cells after virus infection): 63.52% and 64.16% | antiviral effective rate (ER) ([4]; 31.25 μg/ml, limited treatment of 1 hour during virus infection): 60.58% | antiviral effective rate (ER) ([4]; 31.25 μg/ml, pre-treatment host cells prior to virus infection): 56.94% | antiviral effective rate (ER) ([4]; 31.25 μg/ml, pre-treatment of virus with drug): 61.48% | EC50 ([4]; drug delivery way: Blocking viruses invading host cells): 20.4 µg/mL (≈ 114 µM) | EC50 ([4]; drug delivery way: Directly inhibiting virus): 7.55 µg/mL (≈ 42.1 µM) | EC50 ([4]; drug delivery way: Inhibiting the biosynthesis of virus): 6.65 µg/mL (≈ 37.1 µM) | EC50 ([4]; drug delivery way: Intervening the adsorption of virus): 7.85 µg/mL (≈ 43.8 µM) | antiviral effective rate (ER) ([4]; final concentration 3.91 μg/ml): more than 34.00% | CPE of infected MDCK cells [5, 12]: significantly reduce the CPE | virus load vs oseltamivir group ([5]; 24 h treatment, P < 0.05): significantly lower than that of oseltamivir group | virus load vs oseltamivir group ([5]; 48 h treatment): no difference | viral load in MDCK cells vs control infected group ([5]; each dose group, 24 and 48 h after administration, P < 0.01 or P < 0.05): significantly decreased | IL-6 level in cell supernatant vs control infected group [6]: significantly higher than that in the control infected group | level of IFN-β in cell supernatant vs control infected group [6]: significantly increase; also recorded: increased | secretion of TNF-α vs control infected group [6]: significantly inhibited the secretion of TNF-α | mRNA expression levels of TLR7, NF-κB p65, TLR3 and IRF3 [7]: significantly reduced | mRNA expression of IFN-β [7]: significantly increased | mRNA expression of TLR4 [7]: significant decreased | mRNA expression of TLR4, MyD88 and TRAF3 [7]: significantly reduced | mRNA expression of TRAF3 [7]: significantly reduced | TC0 [1]: 31.25 µg/mL | TC50 [1]: 216.77 µg/mL (≈ 1210 µM) | cells' survival rate [1]: higher than 90% | cell viability rate [2]: ≥ 70% | viability at 0.98 µg/mL [3]: 57.3% | viability at 1.95 µg/mL [3]: 63.2% | viability at 3.91 µg/mL [3]: 66.6% | viability at 7.81 µg/mL [3]: 70.3% | viability at 31.25 µg/mL [3]: 77.8% | viability at […] [3]: 75.1%

CCOC(=O)C1=C[C@@H](OC(CC)CC)[C@H](NC(C)=O)[C@@H](N)C1 [Oseltamivir, reference compound]
CPE of infected MDCK cells [5, 12]: significantly reduce the CPE | IL-6 level in cell supernatant vs control infected group [6]: significantly higher than that in the control infected group | Inhibition ratio of lung index ([8]; Day 3, 22 mg/kg by gavage): 41.27% | Lung index ([8]; Day 3, 22 mg/kg by gavage): 0.74 ± 0.03 | Inhibition ratio of lung index ([8]; Day 7, 22 mg/kg by gavage): 38.86% | Lung index ([8]; Day 7, 22 mg/kg by gavage): 1.18 ± 0.11 | spleen index ([9]; Day 3, 22 mg/kg): 0.51 ± 0.13 | thymus index ([9]; Day 3, 22 mg/kg): 0.45 ± 0.05 | spleen index ([9]; Day 7, 22 mg/kg): 0.49 ± 0.08 | thymus index ([9]; Day 7, 22 mg/kg): 0.38 ± 0.03 | IL-10 in serum ([10]; P < 0.01): accelerated the production of IL-10 | IL-1β in serum ([10]; P < 0.01 or P < 0.05): dramatically inhibited the production of IL-1β | IL-6 in serum ([10]; P > 0.05): slightly increased | protein expression levels of MyD88 and NF-κB p65 in lung tissue [11]: significantly down-regulated | protein expression levels of TLR4 and TLR7 in lung tissue [11]: Decreased | TC0 ([1]; 48 h): 100.00 µg/mL | TC50 ([1]; 48 h): 500.00 µg/mL (≈ 1600 µM) | viability at 10 µg/mL [3]: 82.7%
